{"source": "paper PMC4182091", "about": "“A Common Minimal Motif for the Ligands of HLA-B*27 Class I Molecules” (PLoS ONE, 2014)", "format_in_all_cases": "cell-based", "key": {"[1]": {"molecular_target": "T1, HLA-B*2705 (Homo sapiens, UniProt P01889, D138H/D201E/E176V/E204Q/G107R/H137Y/K202T/N104T/N87E/Q56L/Q94K/R106L/R155S/R180L/S101D/S121N/S48T/Y140D/Y33H/Y91C)", "T1 construct": "expressed in transfected cells; host or cells: RMA-S (TAP-deficient murine cell line)", "test": "HLA/peptide complex stability assay, RMA-S cells transfected with HLA-B*2705", "settings": "SD"}, "[2]": {"molecular_target": "T2, HLA-B*2703 (Homo sapiens, UniProt P01889, D138H/D201E/E176V/E204Q/G107R/H137Y/K202T/N104T/N87E/Q56L/Q94K/R106L/R155S/R180L/S101D/S121N/S48T/Y140D/Y33H/Y83H/Y91C)", "T2 construct": "expressed in transfected cells; host or cells: RMA-S (TAP-deficient murine cell line)", "test": "HLA/peptide complex stability assay, RMA-S cells transfected with HLA-B*2703", "settings": "EC50, B*2703; SD"}, "[3]": {"molecular_target": "HLA-B*2704 (Homo sapiens, UniProt P01889, A235G/D138H/D201E/E204Q/G107R/H137Y/K202T/N104T/N87E/Q56L/Q94K/R106L/R155S/R180L/S121N/S48T/Y140D/Y33H/Y91C)", "test": "HLA/peptide complex stability assay, RMA-S cells transfected with HLA-B*2704", "settings": "SD"}, "[4]": {"molecular_target": "T3, HLA-B*2706 (Homo sapiens, UniProt P01889, A235G/D201E/E204Q/G107R/H137Y/K202T/N104T/N87E/Q56L/Q94K/R106L/R155S/R180L/S121N/S48T/Y33H/Y91C)", "T3 construct": "expressed in transfected cells; host or cells: RMA-S (TAP-deficient murine cell line)", "test": "HLA/peptide complex stability assay, RMA-S cells transfected with HLA-B*2706", "settings": "SD"}, "[5]": {"molecular_target": "T4, HLA-B*2701 (Homo sapiens, UniProt P01889, D138H/D201E/D98Y/E176V/E204Q/G107R/H137Y/K202T/L105A/N104T/N87E/Q56L/Q94K/R106L/R155S/R180L/S101N/S121N/S48T/Y140D/Y33H/Y91C)", "T4 construct": "expressed in transfected cells; host or cells: RMA-S (TAP-deficient murine cell line)", "test": "HLA/peptide complex stability assay, RMA-S cells transfected with HLA-B*2701", "settings": "SD"}, "[6]": {"molecular_target": "HLA-B*2702 (Homo sapiens, UniProt P01889, D138H/D201E/E176V/E204Q/G107R/H137Y/K202T/L105A/N104I/N87E/Q56L/Q94K/R106L/R155S/R180L/S101N/S121N/S48T/Y140D/Y33H/Y91C)", "test": "HLA/peptide complex stability assay, RMA-S cells transfected with HLA-B*2702", "settings": "EC50, B*2702; SD"}, "[7]": {"molecular_target": "T5, HLA-B*2709 (Homo sapiens, UniProt P01889, D138H/D201E/E176V/E204Q/G107R/H137Y/K202T/N104T/N87E/Q56L/Q94K/R106L/R155S/R180L/S101D/S121N/S48T/Y140H/Y33H/Y91C)", "T5 construct": "expressed in transfected cells; host or cells: RMA-S (TAP-deficient murine cell line)", "test": "HLA/peptide complex stability assay, RMA-S cells transfected with HLA-B*2709", "settings": "EC50, B*2709; SD"}}, "note": "Ends that are not written are not given here.", "data": [{"sequence": "RRAIATPGM [Flu PB1 238-246, reference compound]", "values": [{"measurement": "EC50", "setting": "[1]", "value": "3 ± 2", "unit": "µM"}, {"measurement": "EC50", "setting": "[2]", "value": "2 ± 1", "unit": "µM"}, {"measurement": "EC50", "setting": "[3]", "value": "9 ± 1", "unit": "µM"}, {"measurement": "EC50", "setting": "[4]", "value": "2 ± 1", "unit": "µM"}, {"measurement": "EC50", "setting": "[5]", "value": "5 ± 1", "unit": "µM"}, {"measurement": "EC50", "setting": "[6]", "value": "12 ± 4", "unit": "µM"}, {"measurement": "EC50", "setting": "[7]", "value": "2 ± 1", "unit": "µM"}]}]}
